Reference: PMC4381582, “RNA interference screening identifies a novel role for PCTK1/CDK16 in medulloblastoma with c-Myc amplification” (Oncotarget, 2014)

Molecular target: T1, PCTAIRE1 (PCTK1/CDK16) (Homo sapiens, UniProt Q00536)
T1 construct: recombinant GST-fusion or His-tagged protein from human cDNA, expressed in Sf9 insect cells or E. coli; with CycY (cyclin Y)
Assay: radiometric protein kinase assay ([…]PanQinase) with GSK3([…]-27) peptide substrate
Assay type: biochemical

T1 sequence (Q00536 whole entry, the tested form may be a part): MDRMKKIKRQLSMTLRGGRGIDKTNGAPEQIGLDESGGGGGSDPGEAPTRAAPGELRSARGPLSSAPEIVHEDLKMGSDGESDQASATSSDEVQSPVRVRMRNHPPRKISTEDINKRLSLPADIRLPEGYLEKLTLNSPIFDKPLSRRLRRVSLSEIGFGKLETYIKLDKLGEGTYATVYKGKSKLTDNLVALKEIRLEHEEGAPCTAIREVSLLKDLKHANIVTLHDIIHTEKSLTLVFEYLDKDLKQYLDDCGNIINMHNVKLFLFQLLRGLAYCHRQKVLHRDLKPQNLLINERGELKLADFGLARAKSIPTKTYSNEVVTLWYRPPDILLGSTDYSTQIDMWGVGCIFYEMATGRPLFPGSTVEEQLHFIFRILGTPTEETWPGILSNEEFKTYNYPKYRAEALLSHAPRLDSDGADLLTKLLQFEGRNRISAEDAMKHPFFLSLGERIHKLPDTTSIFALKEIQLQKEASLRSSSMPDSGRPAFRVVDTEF
T1 sequence (Q8ND76 2-341 partner): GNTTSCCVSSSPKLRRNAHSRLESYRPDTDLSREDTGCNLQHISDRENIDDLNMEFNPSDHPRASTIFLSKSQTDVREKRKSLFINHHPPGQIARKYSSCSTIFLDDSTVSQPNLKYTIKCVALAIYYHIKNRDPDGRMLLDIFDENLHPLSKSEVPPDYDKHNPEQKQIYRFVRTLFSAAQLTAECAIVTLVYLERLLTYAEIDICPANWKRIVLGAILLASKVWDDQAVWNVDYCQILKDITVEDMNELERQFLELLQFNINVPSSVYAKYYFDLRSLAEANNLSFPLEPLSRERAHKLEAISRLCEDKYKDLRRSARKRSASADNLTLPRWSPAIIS

O=C1Nc2ccccc2/C1=C1/Nc2ccccc2/C1=N\OCCC(O)CO (stereo not shown) [indirubin E804]
IC50: 53 nM
